Earlier results as cited in patent US9085576B2 (AMGEN INC., priority 2013, dated 2015).

Assays:
[1] = tested on: pigment epithelium of the rat's eye; conditions: higher compound dose given for three months; cited from earlier work
BACE1 = BACE1 (Homo sapiens (Human), UniProt P56817); conditions: people of the terminated Ph I dosing trial; cited from earlier work
BACE1, sequence (P56817 46-501): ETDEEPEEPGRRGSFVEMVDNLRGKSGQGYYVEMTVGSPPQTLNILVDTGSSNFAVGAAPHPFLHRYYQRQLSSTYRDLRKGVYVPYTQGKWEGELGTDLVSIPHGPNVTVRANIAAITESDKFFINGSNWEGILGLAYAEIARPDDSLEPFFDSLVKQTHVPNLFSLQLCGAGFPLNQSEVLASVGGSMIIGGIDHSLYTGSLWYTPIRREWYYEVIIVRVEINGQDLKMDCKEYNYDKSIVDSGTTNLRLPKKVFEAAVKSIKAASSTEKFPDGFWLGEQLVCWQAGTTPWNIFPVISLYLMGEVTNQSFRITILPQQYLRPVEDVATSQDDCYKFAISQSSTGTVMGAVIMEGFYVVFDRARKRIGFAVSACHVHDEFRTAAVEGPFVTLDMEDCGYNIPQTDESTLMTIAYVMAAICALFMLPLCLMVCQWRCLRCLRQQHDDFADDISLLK

C[C@@]1(c2cc(-c3cncnc3)c(F)cc2F)CCSC(N)=N1 [LY 2811376]
eye toxicity finding [1]: damaged the pigment epithelium of the rat's eye
eye assessments (BACE1): did not show any abnormalities
